# Assays:
# Format in all cases: cell-based
# [1] = tested on: cortical neurons and microglial cells injured with Aβ1-42; test: Rat primary culture of cortical neurons and microglial cells injured with Aβ1-42
# Procedure: Pregnant female rat (Wistar) of 15 days of gestation were killed using a deep anesthesia with CO2 chamber and a cervical dislocation. Fetuses were collected and immediately placed in ice-cold L15 Leibovitz medium with a 2% penicillin (10,000 U/mL) and streptomycin (10 mg/mL) solution (PS) and 1% bovine serum albumin (BSA). Cortex were specifically dissected and then were treated for 20 min at 37° C. with a trypsin-EDTA solution at a final concentration of 0.05% trypsin and 0.02% EDTA. The dissociation was stopped by addition of Dulbecco's modified Eagle's medium (DMEM) with 4.5 g/L of glucose, containing DNAse I grade II (final concentration 0.5 mg/mL) and 10% fetal calf serum (FCS). Cells were mechanically dissociated by three forced passages through the tip of a 10-mL pipette. Cells were then centrifuged at 515×g for 10 min at 4° C. The supernatant was discarded, and the pellet was resuspended in a defined culture medium consisting of Neurobasal medium with a 2% solution of B27 supplement, 2 mmol/liter of L-glutamine, 2% of PS solution, 10 ng/mL of brain-derived neurotrophic factor (BDNF), 2% of heat-inactivated horse serum, 2% of heat-inactivated FCS, 1 g/L of glucose, 1 mM of sodium pyruvate, and 100 μM of non-essential amino acids. The presence of serum in the medium allows the growth of the microglial cells. Viable cells were counted in a Neubauer cytometer, using the trypan blue exclusion test.
# The cells were seeded at a density of 45 000 per well in 96-well plate precoated with poly-L-lysine and were cultured at 37° C. in an air (95%)—CO2 (5%) incubator. The medium was changed every 2 days.
# On day 11 of culture, the compounds were dissolved in the appropriate vehicle and pre-incubated with the primary cortical neurons for one hour (1 h), before Aβ1-42 exposure.
# On day 11 of culture, the cortical neurons were injured with the AP 1-42 peptide. AP 1-42 peptide was dissolved in the defined culture medium mentioned above, at an initial concentration of 20 μM. The solution was gently agitated for 3 days at 37° C. in the dark and immediately used after being properly diluted in culture medium to the concentration used (5 μM, 0.5 μM oligomers precisely evaluated by automatic WB). The AP 1-42 solution was applied on the culture at […] (0.5 μM oligomers, AβO), in presence of the compound, for 72 hours.
# 72 hours after the application of Aβ, the cell culture supernatant was removed. Cells were then washed with phosphate-buffered saline (PBS) and fixed with a cold solution of ethanol (95%) and acetic acid (5%) for 5 min at −20° C. After two washing steps with cold PBS, cells permeabilized and unspecific binding sites were blocked with a solution of PBS containing 0.1% of saponin and 1% of FCS, for 15 min at RT. Cells were incubated for 2 hours with: • a) Monoclonal anti-MAP2 antibody produced in mouse at dilution of 1/400 in PBS containing 1% FCS, 0.1% saponin, for 2 hours at room temperature. • b) Rabbit polyclonal antibody anti-SIRP alpha/CD172a (OX-41) at dilution of 1/400 in PBS containing 1% fetal calf serum and 0.1% of saponin (this antibody stains specifically the microglia and will allow to evaluate the activation of the microglial cells).
# For each condition, 30 pictures (representative of the whole well area) were automatically taken using ImageXpress® (Molecular Devices) at 20× magnification using the same acquisition parameters. From images, the analyses were automatically performed by MetaXpress® (Molecular Devices). The following read-outs were measured: • Total neuron survival (number of MAP-2(+) neurons), • Total length of neurite network of MAP-2(+) neurons (in μm) • Total area of activated microglia (area of OX-41 signal, in μm^2)
# All values are expressed as mean+/−SEM (standard error of the mean). Statistical analysis was performed by one-way ANOVA followed by Fisher's LSD test, with GraphPad Prism. p<0.05 was considered significant.
# [2] = tested on: mouse T lymphocytes; test: Mitochondrial content (Mitotracker positive cells) in mouse T lymphocytes; conditions: 2 μM, 72 h
# Procedure: Splenic murine T cells were isolated from mice aged 6-20 weeks by negative selection with EasySep mouse T cell isolation kit (Stem cell) according to the manufacturer's instructions. T cell activation was initiated using CD3/CD28 activation beads (11456D; ThermoFisher Scientific) at a ratio of 25 μl dynabeads per 0.5×10^6 T-cells. Cells were activated with test compounds at 2 μM or DMSO in T cell activation Medium (RPMI (ThermoFisher Scientific) 10% FBS (South America origin), 10 mM Hepes (Sigma), 1× Non-Essential Amino Acid, 1 mM Sodium Pyruvate, 50 μM β-Mercaptoethanol, 100 U/ml penicillin, 100 μg/ml streptomycin and 2 mM Glutamax (ThermoFisher Scientific) for 72 h. For subsequent analysis, activating beads were magnetically removed prior staining.
# For flow cytometric analysis of mitochondria 500 μl of Mitotracker Red (200 nM; ThermoFisher) was applied followed by surface staining.
# Cell doublets and cells debris were excluded from the analysis by gating FSC-A vs FSC-H followed by SSC-A vs SSC-H dot plots and FSC-A vs SSC-A dot plots, respectively. eFluor 780 highly positive cells, i.e, dead cells, were gated out of the analysis. Data was acquired on Canto II (BD), Fortessa (BD) and Aurora (Cytek) cytometers and analyzed with FlowJo.
# [3] = tested on: splenic murine T cells; test: Murine T cells stimulated with αCD3/αCD28 in presence of UA; conditions: ICG001 10 μM plus UA 50 μM, 48 h
# Procedure: Splenic murine T cells were isolated from mice aged 6-20 weeks by negative selection with EasySep mouse T cell isolation kit (Stem cell) according to the manufacturer's instructions. To monitor T cell proliferation, purified T cells were loaded with CellTrace Violet (C34557 ThermoFisher Scientific). T cell activation was initiated using αCD3/CD28 activation beads (11456D; ThermoFisher Scientific) at a ratio of 25 μl dynabeads per 0.5×106 T-cells. Cells were activated with 25-50 μM Urolithin A (Tocris) or DMSO in T cell activation Medium (RPMI (ThermoFisher Scientific) 10% FBS (South America origin), 10 mM Hepes (Sigma), 1×Non-Essential Amino Acid, 1 mM Sodium Pyruvate, 50 µM β-Mercaptoethanol, 100 U/mL penicillin, 100 μg/mL streptomycin and 2 mM Glutamax (ThermoFisher Scientific) for the indicated durations. In selected experiments, cells were stimulated in the presence of inhibitors, namely TCFli (ICG-001; SelleckChem; […]) and PGC-lai (SR-18292, Sigma-Aldrich; […]). For subsequent analysis, activating beads were magnetically removed prior antibody staining. For human T cells, peripheral blood mononuclear cells were purified with a Ficoll-Paque (GE healthcare) gradient. T cells were enriched with EasySep Human T Cell Isolation Kit (StemCell) and activated with dynabead Human T-Activator CD3/CD28 for T Cell Expansion and Activation Kit (11131D; ThermoFisher Scientific), similar to murine T cell stimulation. When the subsequent activation and expansion of CAR T cells was studied, plates were coated with 1 μg/mL anti-human CD3 (αCD3; clone OKT3) and thawed PBMC were cultivated with […] anti-human CD28 (αCD28; 15E8, both Miltenyi Biotec) containing media for three days. (NutriT media (4Cell® Nutri-T media (Sartorius) containing 0.5% penicillin/streptomycin) supplemented with IL-7 (25 U/mL) and IL-15 […] (all Miltenyi Biotec)).
# Tumors were minced and digested with Tumor & Tissue Dissociation Reagent (BD Horizon) for 30 min. The remaining organ pieces were filtered through a 70 µm cell strainer. Cells were then washed with PBS 1% BSA and 2 mM EDTA. Immune cells were enriched on a 30%/40%/75% Percoll gradient after a 1700 rpm 17 min centrifugation. Then, tumor immune filtrates or activated T cells were stained with Fixable Viability Dye-eF780 (65-0865-14; eBioscience), αCD45-FITC (30-F11; 11-0451-85; eBioscience), αCD11b-BV650 (M1/70; 56340; BD) α-CD11c-BV785 (HL3; 563735; BD), aLy6G-BV605 (53-6.7; 563005; BD), aLy6C-AF700 (HK1.4; 128024; Biolegend), aF4/80-PE (BM8; 12-4801-82, eBioscience), aPD-L1-PECy7 (MIH5; 25-5982-80, eBioscience); or with Fixable Viability Dye-eF780 (ebioscience), αCD45-BV786 (30-F11; 564225; BD), αCD4-BUV496 (GK1.5; 564667; BD), αCD8-BV605 (100744; Biolegend), aPD1-APC (J43; 17-9985-82; eBioscience), aTIM-3-PECy7 (RMT3-23; 119715; Biolegend), aCTLA4-PE (UC10-4B9; 106305; Biolegend) and aLag3-BV421 (C9B7W; 125221, Biolegend); or with Fixable Viability Dye-eF780 (eBioscience), αCD4-FITC (H129.19; 553650; BD), αCD8-APC (53-6.7; 17-0081-83; eBioscience), αCD44-AF400 (IM7; 103026; Biolegend), αCD62L-BV785 (MEL-14; 104440; Biolegend), αSca-1-PerCP-Cy5.5 (D7; 45-5981-82; eBioscience), αCD95-PE (Jo2; 554258; BD); or with Fixable Viability Dye-eF780 (eBioscience), αCD8-BV650 (53-6.7; 563234; BD), αCD4-BUV496 (GK1.5; 564667; BD), αCD127-APC (A7R34; 17-1271-82; eBioscience), αCD95-FITC (SA367H8;152605; Biolegend), αCD44-AF400 (IM7; 103026; Biolegend), αCD62L-BV785 (MEL-14; 104440; Biolegend), αSca-1-PerCP-Cy5.5 (D7; 45-5981-82; eBioscience) followed by intracellular staining of aTCF1-PE (S33-966; 564217; BD), or PGC-1α (sc-518025; D-5; santa cruz), or aCyclinD1 (MA5-28534, DCS-6; Invitrogen) with transcription factor buffer set kit (BD Biosciences). To study cytokine expression, tumor immune infiltrates were stimulated ex vivo with 20 ng/mL PMA and […] Ionomycin (Sigma) for 3 h in T cell activation medium with Brefeldin A (Biolegend). […]
# [4] = 125 and 250 nM, Aβ1-42 72 hours
smiles,measurement,setting,value
"Cc1cc2c(cc1O)OC(C)(C)c1cc(O)c(C)cc1-2 [117A, 2,6,6,9-tetramethyl-6H-benzo[c]chromene-3,8-diol]",microglial activation (conclusion),[1],significantly reduce
same,neuroprotection in the inflammatory in vitro model (conclusion),[1],neuroprotective
same,microglial activation (OX-41),[1]; [4],decrease
same,neurite network of cortical neurons (MAP-2),[1]; [4],significantly protect
same,survival of cortical neurons (MAP-2),[1]; [4],significantly protect
same,increase in the percentage of Mitotracker positive cells vs DMSO,[2],30%
same,percentage of Mitotracker positive cells,[2]; DMSO 44%,57.3%
O=C1[C@H](Cc2ccc(O)cc2)N2C(=O)CCN(C(=O)NCc3ccccc3)[C@H]2CN1Cc1cccc2ccccc12 [ICG001],UA-induced TSCM formation in presence of TCF-1 inhibitor,[3],abrogated

# From US20240139149A1, “THERAPEUTIC USES OF UROLITHIN DERIVATIVES” (Vandria SA, priority 2022, published 2024)
